Results reported in US6737383B1, “Herbicidal oxadiazolidines” (priority 1999, dated 2004).

How the values were obtained:
[1] = tested on: giant foxtail; experiment: Test B pre/postemergence giant foxtail; assay type: in vivo, Setaria faberii
Procedure, shortened: (§1)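 Response is a visual 0-to-10 score relative to untreated plants, where 0 means no effect and 10 means complete control, taken twelve to sixteen days after application. Treatments went onto soil at planting and onto foliage of 1- to 4-leaf plants, using a surfactant-containing non-phytotoxic solvent.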

[2] = tested on: sugar beet; experiment: Test B pre/postemergence sugar beet; assay type: in vivo, Beta vulgaris
Procedure, shortened: as §1

[3] = tested on: soybean; experiment: Test B pre/postemergence soybean; assay type: in vivo, Glycine max
Procedure, shortened: as §1

[4] = tested on: morningglory; experiment: Test B pre/postemergence morningglory; assay type: in vivo, Ipomoea hederacea
Procedure, shortened: as §1

[5] = tested on: pigweed; experiment: Test B pre/postemergence pigweed; assay type: in vivo, Amaranthus retroflexus
Procedure, shortened: as §1

[6] = tested on: surinam grass; experiment: Test B pre/postemergence surinam grass; assay type: in vivo, Brachiaria decumbens
Procedure, shortened: as §1

[7] = tested on: cocklebur; experiment: Test B pre/postemergence cocklebur; assay type: in vivo, Xanthium strumarium
Procedure, shortened: as §1

[8] = tested on: wild oat; experiment: Test B pre/postemergence wild oat; assay type: in vivo, Avena fatua
Procedure, shortened: as §1

[9] = tested on: velvetleaf; experiment: Test B pre/postemergence velvetleaf; assay type: in vivo, Abutilon theophrasti
Procedure, shortened: as §1

[10] = tested on: corn; experiment: Test B pre/postemergence corn; assay type: in vivo, Zea mays
Procedure, shortened: as §1

[11] = tested on: purple nutsedge; experiment: Test B pre/postemergence purple nutsedge; assay type: in vivo, Cyperus rotundus
Procedure, shortened: as §1

[12] = tested on: blackgrass; experiment: Test B pre/postemergence blackgrass; assay type: in vivo, Alopecurus myosuroides
Procedure, shortened: as §1

[13] = tested on: wheat; experiment: Test B pre/postemergence wheat; assay type: in vivo, Triticum aestivum
Procedure, shortened: as §1

[14] = tested on: bedstraw; experiment: Test B pre/postemergence bedstraw; assay type: in vivo, Galium aparine
Procedure, shortened: as §1

[15] = tested on: rape; experiment: Test B pre/postemergence rape; assay type: in vivo, Brassica napus
Procedure, shortened: as §1

[16] = tested on: crabgrass; experiment: Test B pre/postemergence crabgrass; assay type: in vivo, Digitaria sanguinalis
Procedure, shortened: as §1

[17] = Postemergence, Rate 62 g/ha, scale 0 to 10, 0 is no effect, 10 is complete control
[18] = Postemergence, Rate 125 g/ha, scale of 0 to 10 where 0 is no effect and 10 is complete control
[19] = Preemergence, Rate 62 g/ha, scale of 0 to 10 where 0 is no effect and 10 is complete control
[20] = Preemergence, Rate 125 g/ha, scale of 0 to 10 where 0 is no effect and 10 is complete control
[21] = Preemergence, Rate 250 g/ha, scale 0 (no effect) to 10 (complete control)
[22] = Rate 250 g/ha, Postemergence, scale 0 to 10, 0 is no effect, 10 is complete control
[23] = Rate 500 g/ha, Postemergence, scale 0 to 10, 0 is no effect, 10 is complete control
[24] = Preemergence, Rate 500 g/ha, scale of 0 to 10 where 0 is no effect and 10 is complete control

## CC(=O)OCC(CCl)n1c(=O)on(C(=O)N(c2ccc(F)cc2F)C(C)C)c1=O (racemic) [Compound 708]
[1]; [17]
  Plant response rating, Giant foxtail: 0
[1]; [18]
  Giant foxtail plant response rating: 2
[1]; [19]
  Giant foxtail plant response rating: 5
[1]; [20]
  Plant response rating, Giant foxtail: 7
[1]; [21]
  Giant foxtail plant response rating: 8
[1]; [22]
  Giant foxtail plant response rating: 4
[1]; [23]
  Giant foxtail plant response rating: 5
[2]; [17]
  Plant response rating, Sugarbeets: 0
[2]; [18]
  Sugarbeets plant response rating: 0
[2]; [19]
  Sugarbeets plant response rating: 0
[2]; [20]
  Plant response rating, Sugarbeets: 0
[2]; [21]
  Sugarbeets plant response rating: 0
[2]; [22]
  Sugarbeets plant response rating: 0
[2]; [23]
  Sugarbeets plant response rating: 0
[3]; [17]
  Plant response rating, Soybean: 3
[3]; [18]
  Soybean plant response rating: 4
[3]; [19]
  Soybean plant response rating: 0
[3]; [20]
  Plant response rating, Soybean: 0
[3]; [21]
  Soybean plant response rating: 0
[3]; [22]
  Soybean plant response rating: 4
[3]; [23]
  Soybean plant response rating: 4
[4]; [17]
  Plant response rating, Morningglory: 0
[4]; [18]
  Morningglory plant response rating: 2
[4]; [19]
  Morningglory plant response rating: 0
[4]; [20]
  Plant response rating, Morningglory: 0
[4]; [21]
  Morningglory plant response rating: 0
[4]; [22]
  Morningglory plant response rating: 2
[4]; [23]
  Morningglory plant response rating: 5
[5]; [17]
  Plant response rating, Redroot pigweed: 0
[5]; [18]
  Redroot pigweed plant response rating: 0
[5]; [19]
  Redroot pigweed plant response rating: 0
[5]; [20]
  Plant response rating, Redroot pigweed: 3
[5]; [22]
  Redroot pigweed plant response rating: 0
[5]; [23]
  Redroot pigweed plant response rating: 5
[6]; [17]
  Plant response rating, B. signalgrass: 0
[6]; [18]
  B. signalgrass plant response rating: 0
[6]; [19]
  B. signalgrass plant response rating: 0
[6]; [20]
  Plant response rating, B. signalgrass: 0
[6]; [21]
  B. signalgrass plant response rating: 0
[6]; [24]
  Plant response rating, B. signalgrass: 0
[6]; [22]
  B. signalgrass plant response rating: 0
[6]; [23]
  B. signalgrass plant response rating: 2
[7]; [17]
  Plant response rating, Cocklebur: 0
[7]; [18]
  Cocklebur plant response rating: 0
[7]; [19]
  Cocklebur plant response rating: 0
[7]; [20]
  Plant response rating, Cocklebur: 0
[7]; [21]
  Cocklebur plant response rating: 0
[7]; [24]
  Plant response rating, Cocklebur: 0
[7]; [22]
  Cocklebur plant response rating: 0
[7]; [23]
  Cocklebur plant response rating: 0
[8]; [17]
  Plant response rating, Wild oats: 0
[8]; [18]
  Wild oats plant response rating: 0
[8]; [19]
  Wild oats plant response rating: 0
[8]; [20]
  Plant response rating, Wild oats: 0
[8]; [21]
  Wild oats plant response rating: 0
[8]; [22]
  Wild oats plant response rating: 0
[8]; [23]
  Wild oats plant response rating: 0
[9]; [17]
  Plant response rating, Velvetleaf: 0
[9]; [18]
  Velvetleaf plant response rating: 0
[9]; [19]
  Velvetleaf plant response rating: 0
[9]; [20]
  Plant response rating, Velvetleaf: 0
[9]; [21]
  Velvetleaf plant response rating: 2
[9]; [22]
  Velvetleaf plant response rating: 3
[9]; [23]
  Velvetleaf plant response rating: 5
[10]; [17]
  Plant response rating, Corn: 0
[10]; [18]
  Corn plant response rating: 0
[10]; [19]
  Corn plant response rating: 0
[10]; [20]
  Plant response rating, Corn: 0
[10]; [21]
  Corn plant response rating: 0
[10]; [22]
  Corn plant response rating: 0
[10]; [23]
  Corn plant response rating: 0
[11]; [17]
  Plant response rating, Nutsedge: 0
[11]; [18]
  Nutsedge plant response rating: 0
[11]; [20]
  Plant response rating, Nutsedge: 0
[11]; [21]
  Nutsedge plant response rating: 0
[11]; [22]
  Nutsedge plant response rating: 0
[11]; [23]
  Nutsedge plant response rating: 0
[12]; [17]
  Plant response rating, Blackgrass: 0
[12]; [18]
  Blackgrass plant response rating: 0
[12]; [19]
  Blackgrass plant response rating: 0
[12]; [20]
  Plant response rating, Blackgrass: 2
[12]; [21]
  Blackgrass plant response rating: 3
[12]; [24]
  Plant response rating, Blackgrass: 5
[12]; [22]
  Blackgrass plant response rating: 2
[12]; [23]
  Blackgrass plant response rating: 2
[13]; [17]
  Plant response rating, Wheat: 0
[13]; [18]
  Wheat plant response rating: 0
[13]; [19]
  Wheat plant response rating: 0
[13]; [20]
  Plant response rating, Wheat: 0
[13]; [21]
  Wheat plant response rating: 0
[13]; [22]
  Wheat plant response rating: 0
[13]; [23]
  Wheat plant response rating: 0
[14]; [17]
  Plant response rating, Bedstraw: 0
[14]; [18]
  Bedstraw plant response rating: 0
[14]; [19]
  Bedstraw plant response rating: 0
[14]; [20]
  Plant response rating, Bedstraw: 0
[14]; [21]
  Bedstraw plant response rating: 0
[14]; [24]
  Plant response rating, Bedstraw: 0
[15]; [17]
  Plant response rating, Rape: 0
[15]; [18]
  Rape plant response rating: 0
[15]; [19]
  Rape plant response rating: 0
[15]; [20]
  Plant response rating, Rape: 0
[15]; [21]
  Rape plant response rating: 0
[15]; [22]
  Rape plant response rating: 0
[15]; [23]
  Rape plant response rating: 0
[16]; [17]
  Plant response rating, Crabgrass: 0
[16]; [18]
  Crabgrass plant response rating: 0
[16]; [19]
  Crabgrass plant response rating: 6
[16]; [20]
  Plant response rating, Crabgrass: 7
[16]; [21]
  Crabgrass plant response rating: 10
[16]; [22]
  Crabgrass plant response rating: 0
[16]; [23]
  Crabgrass plant response rating: 4
